In US20260022142A1, “MACROCYCLIC IMMUNOMODULATORS” (Bristol-Myers Squibb Company, priority 2022, published 2026):
Bridge positions count the residues as written; N and C are the ends. Square brackets hold non-standard residues; d marks the D form. Peptide text beside a SMILES is read from it. * marks the point of attachment. Bip = N[C@@H](Cc1ccc(-c2ccccc2)cc1)C(=O)O; Phe(3-Me) = Cc1cccc(C[C@H](N)C(=O)O)c1; Cha = N[C@@H](CC1CCCCC1)C(=O)O; Carboxymethyl = O=C(O)C*; Orn = NCCC[C@H](N)C(=O)O; Aun = NCCCCCCCCCCC(=O)O; Dab = NCC[C@H](N)C(=O)O; Dap = NC[C@H](N)C(=O)O

Target: T1, PD-1/PD-L1 interaction (PE-labeled human PD-L1-Ig binding to Jurkat cell line over-expressing human PD-1) (Homo sapiens, UniProt Q15116)
T1 construct: expressed in transfected cells; host or cells: Jurkat
Assay: Jurkat-PD-1 Cell Binding High-Content Screening Assay (CBA)
Format: cell-based
Settings: Jurkat cell line over-expressing human PD-1; PE-labeled PD-L1-Ig 20 nM final; read-out: Jurkat hPD1-PDL1 IC50
Outline: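 First, compound is added to PD-1-expressing Jurkat cells in serum-containing DMEM and left 2 h at 37° C. Next, PE-conjugated PD-L1-Ig is introduced at 20 nM final concentration for 1 hour. Finally, cells are fixed in 4% paraformaldehyde with Hoechst 33342, washed and imaged.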

T1 sequence (Q15116 25-288): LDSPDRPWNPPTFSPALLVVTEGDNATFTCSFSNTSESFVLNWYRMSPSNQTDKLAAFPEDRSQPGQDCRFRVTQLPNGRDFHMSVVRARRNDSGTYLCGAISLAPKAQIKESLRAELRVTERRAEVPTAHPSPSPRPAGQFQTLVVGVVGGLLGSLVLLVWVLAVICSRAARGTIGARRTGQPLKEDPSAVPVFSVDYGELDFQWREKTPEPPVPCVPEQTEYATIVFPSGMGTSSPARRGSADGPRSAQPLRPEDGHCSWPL

Row | IC50 [nM] | Compound
1 | 25 | CC(C)C[C@H]1NC(=O)[C@H](CCCN)NC(=O)[C@H](C(C)C)NC(=O)[C@H](Cc2ccc(-c3ccccc3)cc2)NC(=O)[C@H](C(C)C)NC(=O)[C@H](Cc2c[nH]c3ccccc23)NC(=O)[C@H](CC(=O)O)NC(=O)[C@H](Cc2ccc(OCC(=O)O)cc2)NC(=O)[C@H](CN)NC(=O)CSC[C@@H](C(=O)N[C@@H](C)C(=O)N[C@@H](CCC(=O)O)C(=O)NCC(=O)NCCCCCCCCCCC(=O)O)NC(=O)[C@H]([C@@H](C)O)NC(=O)[C@H](C(C)C)NC(=O)[C@H](CC2CCCCC2)NC(=O)[C@H](Cc2c[nH]cn2)NC1=O [Compound 1088] ({CH2CO}-[Dap]Y(Carboxymethyl)DWV[Bip]V[Orn][dL]H[Cha]VTCAEG[Aun]-OH; thioether N-14)
2 | 33.1 | CC(C)C[C@H]1NC(=O)[C@H](CCCN)NC(=O)[C@H](C(C)C)NC(=O)[C@H](Cc2ccc(-c3ccccc3)cc2)NC(=O)[C@H](C(C)C)NC(=O)[C@H](Cc2c[nH]c3ccccc23)NC(=O)[C@H](CC(=O)O)NC(=O)[C@H](Cc2ccc(OCC(=O)O)cc2)NC(=O)[C@H](CN)NC(=O)CSC[C@@H](C(=O)N[C@@H](C)C(=O)N[C@@H](CC(=O)O)C(=O)NCC(=O)NCCCCCCCCCCC(=O)O)NC(=O)[C@H]([C@@H](C)O)NC(=O)[C@H](C(C)C)NC(=O)[C@H](CC2CCCCC2)NC(=O)[C@H](Cc2cnc[nH]2)NC1=O [Compound 1089] ({CH2CO}-[Dap]Y(Carboxymethyl)DWV[Bip]V[Orn][dL]H[Cha]VTCADG[Aun]-OH; thioether N-14)
3 | 38.9 | CC(C)C[C@H]1NC(=O)[C@H](CCCN)NC(=O)[C@H](C(C)C)NC(=O)[C@H](Cc2ccc(-c3ccccc3)cc2)NC(=O)[C@H](C(C)C)NC(=O)[C@H](Cc2c[nH]c3ccccc23)NC(=O)[C@H](CC(=O)O)NC(=O)[C@H](Cc2ccc(OCC(=O)O)cc2)NC(=O)[C@H](CN)NC(=O)CSC[C@@H](C(=O)N[C@@H](C)C(=O)N[C@@H](CCCCN)C(=O)NCCCCCCCCCCC(=O)O)NC(=O)[C@H]([C@@H](C)O)NC(=O)[C@H](C(C)C)NC(=O)[C@H](CC2CCCCC2)NC(=O)[C@H](Cc2cnc[nH]2)NC1=O [Compound 1090] ({CH2CO}-[Dap]Y(Carboxymethyl)DWV[Bip]V[Orn][dL]H[Cha]VTCAK[Aun]-OH; thioether N-14)
4 | 31.5 | CC(C)C[C@H]1NC(=O)[C@H](CCCN)NC(=O)[C@H](C(C)C)NC(=O)[C@H](Cc2ccc(-c3ccccc3)cc2)NC(=O)[C@H](C(C)C)NC(=O)[C@H](Cc2c[nH]c3ccccc23)NC(=O)[C@H](CC(=O)O)NC(=O)[C@H](Cc2ccc(OCC(=O)O)cc2)NC(=O)[C@H](CN)NC(=O)CSC[C@@H](C(=O)N[C@@H](C)C(=O)N[C@@H](CCCN)C(=O)NCCCCCCCCCCC(=O)O)NC(=O)[C@H]([C@@H](C)O)NC(=O)[C@H](C(C)C)NC(=O)[C@H](CC2CCCCC2)NC(=O)[C@H](Cc2cnc[nH]2)NC1=O [Compound 1091] ({CH2CO}-[Dap]Y(Carboxymethyl)DWV[Bip]V[Orn][dL]H[Cha]VTCA[Orn][Aun]-OH; thioether N-14)
5 | 37.3 | CC(C)C[C@H]1NC(=O)[C@H](CCCN)NC(=O)[C@H](C(C)C)NC(=O)[C@H](Cc2ccc(-c3ccccc3)cc2)NC(=O)[C@H](C(C)C)NC(=O)[C@H](Cc2c[nH]c3ccccc23)NC(=O)[C@H](CC(=O)O)NC(=O)[C@H](Cc2ccc(OCC(=O)O)cc2)NC(=O)[C@H](CN)NC(=O)CSC[C@@H](C(=O)N[C@@H](CC(=O)O)C(=O)NCC(=O)NCCCCCCCCCCC(=O)O)NC(=O)[C@H]([C@@H](C)O)NC(=O)[C@H](C(C)C)NC(=O)[C@H](CC2CCCCC2)NC(=O)[C@H](Cc2cnc[nH]2)NC1=O [Compound 1092] ({CH2CO}-[Dap]Y(Carboxymethyl)DWV[Bip]V[Orn][dL]H[Cha]VTCDG[Aun]-OH; thioether N-14)
6 | 11.8 | Cc1cccc(C[C@@H]2NC(=O)[C@H](CC(=O)O)NC(=O)[C@H](Cc3ccc(OCC(=O)O)cc3)NC(=O)[C@H](CN)NC(=O)CSC[C@@H](C(=O)N[C@@H](CC(=O)O)C(=O)NCC(=O)NCCCCCCCCCCC(=O)O)NC(=O)[C@H]([C@@H](C)O)NC(=O)[C@H](C(C)C)NC(=O)[C@H](CC3CCCCC3)NC(=O)[C@H](Cc3cnc[nH]3)NC(=O)[C@@H](CC(C)C)NC(=O)[C@H](CCCN)NC(=O)[C@H](C(C)C)NC(=O)[C@H](Cc3ccc(-c4ccccc4)cc3)NC(=O)[C@H](C(C)C)NC2=O)c1 [Compound 1093] ({CH2CO}-[Dap]Y(Carboxymethyl)D[Phe(3-Me)]V[Bip]V[Orn][dL]H[Cha]VTCDG[Aun]-OH; thioether N-14)

The remaining lines, values behind:

Row | Compound | IC50 [nM]
7 | CC(C)C[C@H]1NC(=O)[C@H](CCCN)NC(=O)[C@H](C(C)C)NC(=O)[C@H](Cc2ccc(-c3ccccc3)cc2)NC(=O)[C@H](C(C)C)NC(=O)[C@H](Cc2c[nH]c3ccccc23)NC(=O)[C@H](CC(=O)O)NC(=O)[C@H](Cc2ccc(OCC(=O)O)cc2)NC(=O)[C@H](CN)NC(=O)CSC[C@@H](C(=O)N[C@@H](CCCCN)C(=O)NCCCCCCCCCCC(=O)O)NC(=O)[C@H]([C@@H](C)O)NC(=O)[C@H](C(C)C)NC(=O)[C@H](CC2CCCCC2)NC(=O)[C@H](Cc2c[nH]cn2)NC1=O [Compound 1077] ({CH2CO}-[Dap]Y(Carboxymethyl)DWV[Bip]V[Orn][dL]H[Cha]VTCK[Aun]-OH; thioether N-14) | 46.7
8 | CC(C)C[C@H]1NC(=O)[C@H](CCCN)NC(=O)[C@H](C(C)C)NC(=O)[C@H](Cc2ccc(-c3ccccc3)cc2)NC(=O)[C@H](C(C)C)NC(=O)[C@H](Cc2c[nH]c3ccccc23)NC(=O)[C@H](CC(=O)O)NC(=O)[C@H](Cc2ccc(OCC(=O)O)cc2)NC(=O)[C@H](CN)NC(=O)CSC[C@@H](C(=O)N[C@@H](CC(=O)O)C(=O)NCCCCCCCCCCC(=O)O)NC(=O)[C@H]([C@@H](C)O)NC(=O)[C@H](C(C)C)NC(=O)[C@H](CC2CCCCC2)NC(=O)[C@H](Cc2c[nH]cn2)NC1=O [Compound 1078] ({CH2CO}-[Dap]Y(Carboxymethyl)DWV[Bip]V[Orn][dL]H[Cha]VTCD[Aun]-OH; thioether N-14) | 84.9
9 | CC(C)C[C@H]1NC(=O)[C@H](CCCN)NC(=O)[C@H](C(C)C)NC(=O)[C@H](Cc2ccc(-c3ccccc3)cc2)NC(=O)[C@H](C(C)C)NC(=O)[C@H](Cc2c[nH]c3ccccc23)NC(=O)[C@H](CC(=O)O)NC(=O)[C@H](Cc2ccc(OCC(=O)O)cc2)NC(=O)[C@H](CN)NC(=O)CSC[C@@H](C(=O)N[C@@H](CCC(=O)O)C(=O)NCCCCCCCCCCC(=O)O)NC(=O)[C@H]([C@@H](C)O)NC(=O)[C@H](C(C)C)NC(=O)[C@H](CC2CCCCC2)NC(=O)[C@H](Cc2c[nH]cn2)NC1=O [Compound 1079] ({CH2CO}-[Dap]Y(Carboxymethyl)DWV[Bip]V[Orn][dL]H[Cha]VTCE[Aun]-OH; thioether N-14) | 55.6
10 | CC(C)C[C@H]1NC(=O)[C@H](CCCN)NC(=O)[C@H](C(C)C)NC(=O)[C@H](Cc2ccc(-c3ccccc3)cc2)NC(=O)[C@H](C(C)C)NC(=O)[C@H](Cc2c[nH]c3ccccc23)NC(=O)[C@H](CC(=O)O)NC(=O)[C@H](Cc2ccc(OCC(=O)O)cc2)NC(=O)[C@H](CN)NC(=O)CSC[C@@H](C(=O)N[C@@H](C)C(=O)N[C@@H](CCC(=O)O)C(=O)NCCCCCCCCCCC(=O)O)NC(=O)[C@H]([C@@H](C)O)NC(=O)[C@H](C(C)C)NC(=O)[C@H](CC2CCCCC2)NC(=O)[C@H](Cc2cnc[nH]2)NC1=O [Compound 1080] ({CH2CO}-[Dap]Y(Carboxymethyl)DWV[Bip]V[Orn][dL]H[Cha]VTCAE[Aun]-OH; thioether N-14) | 35.7
11 | CC(C)C[C@H]1NC(=O)[C@H](CCCN)NC(=O)[C@H](C(C)C)NC(=O)[C@H](Cc2ccc(-c3ccccc3)cc2)NC(=O)[C@H](C(C)C)NC(=O)[C@H](Cc2c[nH]c3ccccc23)NC(=O)[C@H](CC(=O)O)NC(=O)[C@H](Cc2ccc(OCC(=O)O)cc2)NC(=O)[C@H](CN)NC(=O)CSC[C@@H](C(=O)N[C@@H](C)C(=O)N[C@@H](CN)C(=O)NCCCCCCCCCCC(=O)O)NC(=O)[C@H]([C@@H](C)O)NC(=O)[C@H](C(C)C)NC(=O)[C@H](CC2CCCCC2)NC(=O)[C@H](Cc2cnc[nH]2)NC1=O [Compound 1081] ({CH2CO}-[Dap]Y(Carboxymethyl)DWV[Bip]V[Orn][dL]H[Cha]VTCA[Dap][Aun]-OH; thioether N-14) | 28.5
12 | CC(C)C[C@H]1NC(=O)[C@H](CCCN)NC(=O)[C@H](C(C)C)NC(=O)[C@H](Cc2ccc(-c3ccccc3)cc2)NC(=O)[C@H](C(C)C)NC(=O)[C@H](Cc2c[nH]c3ccccc23)NC(=O)[C@H](CC(=O)O)NC(=O)[C@H](Cc2ccc(OCC(=O)O)cc2)NC(=O)[C@H](CN)NC(=O)CSC[C@@H](C(=O)N[C@@H](C)C(=O)N[C@@H](CCN)C(=O)NCCCCCCCCCCC(=O)O)NC(=O)[C@H]([C@@H](C)O)NC(=O)[C@H](C(C)C)NC(=O)[C@H](CC2CCCCC2)NC(=O)[C@H](Cc2cnc[nH]2)NC1=O [Compound 1082] ({CH2CO}-[Dap]Y(Carboxymethyl)DWV[Bip]V[Orn][dL]H[Cha]VTCA[Dab][Aun]-OH; thioether N-14) | 24.7
13 | CC(C)C[C@H]1NC(=O)[C@H](CCCN)NC(=O)[C@H](C(C)C)NC(=O)[C@H](Cc2ccc(-c3ccccc3)cc2)NC(=O)[C@H](C(C)C)NC(=O)[C@H](Cc2c[nH]c3ccccc23)NC(=O)[C@H](CC(=O)O)NC(=O)[C@H](Cc2ccc(OCC(=O)O)cc2)NC(=O)[C@H](CN)NC(=O)CSC[C@@H](C(=O)N[C@@H](C)C(=O)N[C@@H](CCCN)C(=O)NCC(=O)NCCCCCCCCCCC(=O)O)NC(=O)[C@H]([C@@H](C)O)NC(=O)[C@H](C(C)C)NC(=O)[C@H](CC2CCCCC2)NC(=O)[C@H](Cc2c[nH]cn2)NC1=O [Compound 1086] ({CH2CO}-[Dap]Y(Carboxymethyl)DWV[Bip]V[Orn][dL]H[Cha]VTCA[Orn]G[Aun]-OH; thioether N-14) | 21
